The values below come from paper PMC3913050 (Bioorganic & medicinal chemistry, 2013).

Test [1] has as its target dopamine transporter (DAT) (Rattus norvegicus, UniProt P23977). Kind of test: Inhibition of [3H]DA uptake by DAT in rat striatum. It is filed as biochemical.
The target of test [2] is serotonin transporter (SERT) (Rattus norvegicus, UniProt P31652). Kind of test: Inhibition of [3H]5-HT uptake by SERT in rat cerebral cortex. In kind it is biochemical.
Test [3] deals with norepinephrine transporter (NET) (Rattus norvegicus, UniProt Q63380). Briefly: Inhibition of [3H]DA uptake by NET in rat cerebral cortex.
Chain of norepinephrine transporter (NET) (Q63380 1-617): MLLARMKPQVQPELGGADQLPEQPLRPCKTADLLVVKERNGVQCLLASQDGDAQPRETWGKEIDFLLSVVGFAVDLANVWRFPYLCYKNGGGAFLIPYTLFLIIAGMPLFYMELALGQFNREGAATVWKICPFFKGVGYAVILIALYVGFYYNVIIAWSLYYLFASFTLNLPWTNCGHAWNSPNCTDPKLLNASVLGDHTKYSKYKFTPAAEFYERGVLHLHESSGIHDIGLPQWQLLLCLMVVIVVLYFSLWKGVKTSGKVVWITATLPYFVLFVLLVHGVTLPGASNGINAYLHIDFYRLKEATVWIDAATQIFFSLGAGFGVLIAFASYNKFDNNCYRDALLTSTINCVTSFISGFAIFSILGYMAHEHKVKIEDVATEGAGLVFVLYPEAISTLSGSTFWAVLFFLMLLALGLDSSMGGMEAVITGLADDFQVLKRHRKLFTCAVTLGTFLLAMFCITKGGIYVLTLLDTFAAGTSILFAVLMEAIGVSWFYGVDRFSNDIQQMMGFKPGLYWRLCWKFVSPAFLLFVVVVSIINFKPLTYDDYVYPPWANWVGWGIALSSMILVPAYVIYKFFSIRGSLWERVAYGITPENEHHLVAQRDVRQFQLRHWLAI

Chain of serotonin transporter (SERT) (P31652 whole entry): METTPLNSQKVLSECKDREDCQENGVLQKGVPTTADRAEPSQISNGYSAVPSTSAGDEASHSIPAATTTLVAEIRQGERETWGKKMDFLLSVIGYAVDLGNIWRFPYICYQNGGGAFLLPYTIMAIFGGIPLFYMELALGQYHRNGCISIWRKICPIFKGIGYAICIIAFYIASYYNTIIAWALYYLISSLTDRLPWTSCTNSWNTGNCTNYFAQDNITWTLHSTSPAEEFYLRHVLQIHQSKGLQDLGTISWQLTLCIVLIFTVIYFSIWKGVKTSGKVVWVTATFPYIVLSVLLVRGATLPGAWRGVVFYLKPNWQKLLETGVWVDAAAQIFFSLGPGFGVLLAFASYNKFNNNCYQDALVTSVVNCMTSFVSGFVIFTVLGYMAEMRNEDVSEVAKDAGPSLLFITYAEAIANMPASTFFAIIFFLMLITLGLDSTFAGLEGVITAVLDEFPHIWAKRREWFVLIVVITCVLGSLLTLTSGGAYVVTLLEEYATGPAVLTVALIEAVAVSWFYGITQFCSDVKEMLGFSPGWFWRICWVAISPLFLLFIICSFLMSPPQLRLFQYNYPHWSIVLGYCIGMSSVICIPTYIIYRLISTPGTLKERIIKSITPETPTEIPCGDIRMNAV
Chain of dopamine transporter (DAT) (P23977 whole entry): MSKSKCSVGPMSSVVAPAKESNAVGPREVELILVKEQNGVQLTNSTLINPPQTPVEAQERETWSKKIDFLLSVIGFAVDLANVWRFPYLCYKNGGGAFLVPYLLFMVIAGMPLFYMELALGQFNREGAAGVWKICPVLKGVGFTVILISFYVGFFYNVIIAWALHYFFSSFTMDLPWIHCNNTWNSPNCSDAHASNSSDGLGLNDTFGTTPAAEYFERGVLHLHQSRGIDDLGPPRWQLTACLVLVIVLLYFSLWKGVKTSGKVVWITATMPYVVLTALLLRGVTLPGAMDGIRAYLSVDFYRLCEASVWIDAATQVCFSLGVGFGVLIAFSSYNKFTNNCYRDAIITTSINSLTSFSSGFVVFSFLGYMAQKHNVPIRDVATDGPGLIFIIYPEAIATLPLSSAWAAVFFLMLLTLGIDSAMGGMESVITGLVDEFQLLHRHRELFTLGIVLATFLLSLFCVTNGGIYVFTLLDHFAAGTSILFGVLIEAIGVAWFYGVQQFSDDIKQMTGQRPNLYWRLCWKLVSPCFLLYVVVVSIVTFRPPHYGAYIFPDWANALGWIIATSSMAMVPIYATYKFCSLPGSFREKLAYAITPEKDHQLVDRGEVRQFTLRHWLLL

On to “3-((((3S,5S)-5-benzhydryltetrahydrofuran-3-yl)amino)methyl)phenol [compound 40]”, for which the Ki in test [1] (read-out: Ki uptake inhibition, DAT, text value in µM) was 0.94 µM; in test [2] (read-out: Ki uptake inhibition, SERT, text value in µM) it was 1.15 µM; in test [3] (read-out: Ki uptake inhibition, NET, text value in µM), 1.51 µM.

In the case of `c1ccc(CCN[C@@H]2CO[C@H](C(c3ccccc3)c3ccccc3)C2)cc1` [compound 44, (3S,5S)-5-benzhydryl-N-phenethyltetrahydrofuran-3-amine], in test [1] (uptake inhibition), the “activity against DAT (in words)” value was “weak activity”. Moreover, in test [2] (uptake inhibition), the “activity against SERT (in words)” value is “inactive”. In addition, the “activity against NET (in words)” value in test [3] (uptake inhibition) is on record as “weak activity”.

The term Ki denotes a measure of affinity in units of concentration, obtained from inhibition or displacement.
